Measured values taken from patent US11040035B2, “3-oxo-2,6-diphenyl-2,3-dihydropyridazine-4-carboxamides” (BAYER PHARMA AKTIENGESELLSCHAFT, priority 2016, dated 2021).

Experiments:
[1] = molecular target: T1, AHR (Homo sapiens, UniProt P35869); test: In vitro assay 2: agonism in human cell line (transactivation assay)
T1 sequence (P35869 11-848): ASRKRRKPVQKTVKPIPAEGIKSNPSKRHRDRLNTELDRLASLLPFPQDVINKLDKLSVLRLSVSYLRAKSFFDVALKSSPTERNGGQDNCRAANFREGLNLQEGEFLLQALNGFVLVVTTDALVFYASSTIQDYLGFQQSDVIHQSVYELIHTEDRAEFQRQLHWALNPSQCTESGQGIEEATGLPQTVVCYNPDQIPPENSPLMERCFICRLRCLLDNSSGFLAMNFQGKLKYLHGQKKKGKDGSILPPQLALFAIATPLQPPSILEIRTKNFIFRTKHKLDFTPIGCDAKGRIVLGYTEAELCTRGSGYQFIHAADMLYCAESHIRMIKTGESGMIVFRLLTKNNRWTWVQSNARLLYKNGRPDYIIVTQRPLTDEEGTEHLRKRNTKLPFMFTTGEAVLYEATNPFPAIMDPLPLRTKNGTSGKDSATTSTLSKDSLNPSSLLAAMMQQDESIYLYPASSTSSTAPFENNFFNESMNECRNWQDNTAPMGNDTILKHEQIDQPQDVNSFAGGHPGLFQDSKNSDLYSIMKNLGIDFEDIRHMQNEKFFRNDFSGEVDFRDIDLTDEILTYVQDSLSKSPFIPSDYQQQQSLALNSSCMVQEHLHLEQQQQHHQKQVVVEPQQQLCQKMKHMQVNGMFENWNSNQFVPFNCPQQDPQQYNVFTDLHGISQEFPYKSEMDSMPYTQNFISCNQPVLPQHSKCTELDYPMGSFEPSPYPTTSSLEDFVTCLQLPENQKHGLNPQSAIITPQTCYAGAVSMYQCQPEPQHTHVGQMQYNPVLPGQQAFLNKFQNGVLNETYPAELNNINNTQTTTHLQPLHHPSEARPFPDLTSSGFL

[2] = system: AHR-regulated gene CYP1A1; test: In vitro assay 3: AHR-regulated CYP1A1 expression in human cell line (U937, qPCR); conditions: Homo sapiens, U-937, 6 h, read-out: Assay 3: Hum CYP1A1 Antagonism IC50 [M], U937 cells, 200 μM KA, 6 hours, qPCR
Method: In Vitro Assay 3: AHR-Regulated CYP1A1 Expression in Human Cell Line
To assess the AHR inhibitory activity of the substances described in this application, the ability thereof to antagonise ligand-induced AHR gene regulation in a dose-dependent manner was quantified. For this purpose, quantitative PCR analysis was used to determine expression of the AHR-regulated gene CYP1A1 in a human monocytic U937 cell line upon stimulation with 200 μM KA in the presence and absence of AHR inhibitor. U937 cells were sown at a concentration of 2×10^5 cells/well in 100 ul of growth medium (RPMI 1640, 20% FCS) in 96-well microtitre plates. CYP1A1 expression was induced with 200 μM KA (positive control) in the presence or absence of the substances for 6 hours. Human U937 cells were typically incubated with eight different concentrations of the substances (1 nM, 3 nM, 10 nM, 30 nM, 100 nM, 300 nM, 1 μM and 3 μM) and analyzed in duplicate on the same microtitre plate. After stimulation, cells were lysed with Nucleic Acid Lysis Solution (#4305895, Applied Biosystems) and RNA was isolated using the 6100 Nucleic Acid Preparation Station (Applied Biosystems) and reverse-transcribed to cDNA using SuperScript VILO cDNA synthesis kit (#11754-250, Invitrogen). Unstimulated cells were used as the negative control. Taqman probes for human CYP1A1 (Hs01054797_g1) and human HPRT (Hs02800695_m1) were used to analyze fold expression of CYP1A1 of HPRT. Quantitation was performed on a Taqman SDS7900HT.

[3] = molecular target: T1, AHR; test: In vitro assay 1: antagonism in human cell line (transactivation assay, kynurenic acid prestimulated); conditions: Assay 1: AHR-luc Hum Antagonism IC50 [M], 150 μM kynurenic acid, 20 hours, firefly luciferase
[4] = Assay 2: AHR-luc Hum Agonism IC50 [M], no kynurenic acid, 20 hours, firefly luciferase
[5] = read-out: Assay 2: AHR-luc Hum Agonism IC50, no kynurenic acid, 20 hours, firefly luciferase

| IC50 [1, 4] [M] | IC50 [2] [M] | IC50 [3] [M] | IC50 [1, 5] [M] | SMILES |
| --- | --- | --- | --- | --- |
| > 2e-05 | 2.08e-08 | 4.94e-09 | – | CC(C)(O)C(NC(=O)c1cc(-c2ccc(Cl)cc2)nn(-c2cccc(F)c2)c1=O)C(F)(F)F (stereo not drawn) [Example 277, 6-(4-Chlorophenyl)-2-(3-fluorophenyl)-3-oxo-N-(1,1,1-trifluoro-3-hydroxy-3-methylbutan-2-yl)-2,3-dihydropyridazine-4-carboxamide] |
| > 2e-05 | 2.68e-08 | 2.63e-08 | – | CC[C@@H](CO)NC(=O)c1cc(-c2ccc(OC(F)(F)F)cc2)nn(-c2cccc(F)c2)c1=O [Example 172, 2-(3-Fluorophenyl)-N-[(2S)-1-hydroxybutan-2-yl]-3-oxo-6-[4-(trifluoromethoxy)phenyl]-2,3-dihydropyridazine-4-carboxamide] |
| > 2e-05 | – | 1.36e-07 | – | C[C@@H](CO)NC(=O)c1cc(-c2ccc(N(C)C)c(Cl)c2)nn(-c2cccc(F)c2)c1=O [Example 377, 6-[3-chloro-4-(dimethylamino)phenyl]-2-(3-fluorophenyl)-N-[(2S)-1-hydroxypropan-2-yl]-3-oxo-2,3-dihydropyridazine-4-carboxamide] |
| > 2e-05 | – | 1.24e-07 | – | CC(O)C(C)NC(=O)c1cc(-c2ccc(OC(F)(F)F)cc2)nn(-c2cccc(F)c2)c1=O (single isomer, unassigned) [Example 180, 2-(3-Fluorophenyl)-N-(3-hydroxybutan-2-yl)-3-oxo-6-[4-(trifluoromethoxy)phenyl]-2,3-dihydropyridazine-4-carboxamide] |
| – | – | 1.45e-07 | > 2e-05 | O=C(N[C@@H]1CCCC(F)(F)[C@H]1O)c1cc(-c2ccc(Cl)cc2)nn(-c2cccc(F)c2)c1=O (single isomer, unassigned) [Example 276, 6-(4-Chlorophenyl)-N-[(trans)-3,3-difluoro-2-hydroxycyclohexyl]-2-(3-fluorophenyl)-3-oxo-2,3-dihydropyridazine-4-carboxamide] |
| – | – | 2e-07 | > 2e-05 | CC(CCO)NC(=O)c1cc(-c2ccc(Cl)cc2)nn(-c2cccc(F)c2)c1=O (single isomer, unassigned; (-)) [Example 208, (−)-6-(4-Chlorophenyl)-2-(3-fluorophenyl)-N-(4-hydroxybutan-2-yl)-3-oxo-2,3-dihydropyridazine-4-carboxamide] |
| > 2e-05 | – | 1.34e-07 | – | O=C(NC(CO)Cc1ccccn1)c1cc(-c2ccc(Cl)cc2)nn(-c2cccc(F)c2)c1=O (racemic) [Example 333, 6-(4-chlorophenyl)-2-(3-fluorophenyl)-N-[(2RS)-1-hydroxy-3-(pyridin-2-yl)propan-2-yl]-3-oxo-2,3-dihydropyridazine-4-carboxamide] |
| > 2e-05 | – | 3.82e-08 | – | COCCC(CO)NC(=O)c1cc(-c2ccc(C(F)(F)F)cc2)nn(-c2cccc(F)c2)c1=O (racemic) [Example 259, 2-(3-Fluorophenyl)-N-[(2RS)-1-hydroxy-4-methoxybutan-2-yl]-3-oxo-6-[4-(trifluoromethyl)phenyl]-2,3-dihydropyridazine-4-carboxamide] |

Second part, the compound before the results:

| SMILES | IC50 [1, 4] [M] | IC50 [2] [M] | IC50 [3] [M] | IC50 [1, 5] [M] |
| --- | --- | --- | --- | --- |
| Cc1ccc(-c2cc(C(=O)NC(CO)C(C)C)c(=O)n(-c3cccc(F)c3)n2)cc1 (stereo not drawn) [Example 1, 2-(3-Fluorophenyl)-N-(1-hydroxy-3-methylbutan-2-yl)-6-(4-methylphenyl)-3-oxo-2,3-dihydropyridazine-4-carboxamide] | – | 3.1e-08 | 2.98e-08 | – |
| Cc1ccc(-c2cc(C(=O)NC(C)CO)c(=O)n(-c3cccc(F)c3)n2)cc1 (stereo not drawn) [Example 7, 2-(3-Fluorophenyl)-N-(1-hydroxypropan-2-yl)-6-(4-methylphenyl)-3-oxo-2,3-dihydropyridazine-4-carboxamide] | – | 1.23e-07 | 6.4e-08 | – |
| CC[C@@H](CO)NC(=O)c1cc(-c2ccc(C)c(C)c2)nn(-c2cccc(F)c2)c1=O [Example 86, 6-(3,4-dimethylphenyl)-2-(3-fluorophenyl)-N-[(2S)-1-hydroxybutan-2-yl]-3-oxo-2,3-dihydropyridazine-4-carboxamide] | – | 4.83e-08 | 4.55e-08 | – |
| Cc1ccc(-c2cc(C(=O)N[C@@H](CO)C(C)C)c(=O)n(-c3cccc(F)c3)n2)cc1 [Example 3, 2-(3-Fluorophenyl)-N-[(2R)-1-hydroxy-3-methylbutan-2-yl]-6-(4-methylphenyl)-3-oxo-2,3-dihydropyridazine-4-carboxamide] | – | 1.31e-07 | 3.03e-07 | – |
| O=C(N[C@@H]1CCC[C@@H]1O)c1cc(-c2ccc(Cl)cc2)nn(-c2cccc(F)c2)c1=O (relative stereo) [Example 109, 6-(4-Chlorophenyl)-2-(3-fluorophenyl)-N-(cis-2-hydroxycyclopentyl)-3-oxo-2,3-dihydropyridazine-4-carboxamide] | > 2e-05 | 3.61e-08 | – | – |
| Cc1ccc(-c2cc(C(=O)N[C@H](CO)C(C)C)c(=O)n(-c3cccc(F)c3)n2)cc1C [Example 83, 6-(3,4-dimethylphenyl)-2-(3-fluorophenyl)-N-[(2S)-1-hydroxy-3-methylbutan-2-yl]-3oxo-2,3-dihydropyridazine-4-carboxamide] | – | 2.39e-08 | 3.6e-08 | – |
| CC[C@@H](CO)NC(=O)c1cc(-c2ccc(Cl)cc2)nn(-c2cccc(F)c2)c1=O [Example 21, 6-(4-Chlorophenyl)-2-(3-fluorophenyl)-N-[(2S)-1-hydroxybutan-2-yl]-3-oxo-2,3-dihydropyridazine-4-carboxamide] | – | 3.54e-08 | 1.89e-08 | – |
| Cc1ccc(-c2cc(C(=O)N[C@@H](C)CO)c(=O)n(-c3cccc(F)c3)n2)cc1C [Example 89, 6-(3,4-dimethylphenyl)-2-(3-fluorophenyl)-N-[(2S)-1-hydroxypropan-2-yl]-3-oxo-2,3-dihydropyridazine-4-carboxamide] | – | 1.88e-07 | 1.15e-07 | – |
| O=C(NC(CO)C1CCOC1)c1cc(-c2ccc(OC(F)F)cc2)nn(-c2cccc(F)c2)c1=O (single isomer, unassigned) [Example 146, 6-[4-(Difluoromethoxy)phenyl]-2-(3-fluorophenyl)-N-{(2-hydroxy-1-tetrahydrofuran-3-yl)ethyl}-3-oxo-2,3-dihydropyridazine-4-carboxamide] | – | – | 2.94e-07 | > 2e-05 |
| COc1ccc(-c2cc(C(=O)N[C@H](CO)C(C)C)c(=O)n(-c3cccc(F)c3)n2)cc1 [Example 113, 2-(3-Fluorophenyl)-N-[(2S)-1-hydroxy-3-methylbutan-2-yl]-6-(4-methoxyphenyl)-3-oxo-2,3-dihydropyridazine-4-carboxamide] | > 2e-05 | – | 1.8e-08 | – |
| O=C(NCC(O)C(F)(F)F)c1cc(-c2ccc(Cl)cc2)nn(-c2cc(F)cc(F)c2)c1=O (stereo not drawn) [Example 44, 6-(4-Chlorophenyl)-2-(3,5-difluorophenyl)-3-oxo-N-(3,3,3-trifluoro-2-hydroxypropyl)-2,3-dihydropyridazine-4-carboxamide] | > 2e-05 | – | 1.99e-08 | – |
| C[C@@H](CO)NC(=O)c1cc(-c2ccc(C(F)F)cc2)nn(-c2cccc(F)c2)c1=O [Example 93, 6-[4-(Difluoromethyl)phenyl]-2-(3-fluorophenyl)-N-[(2S)-1-hydroxypropan-2-yl]-3-oxo-2,3-dihydropyridazine-4-carboxamide] | > 2e-05 | – | 3.02e-08 | – |
| C[C@@H](CO)NC(=O)c1cc(-c2ccc(Cl)cc2)nn(-c2ccccc2)c1=O [Example 80, 6-(4-chlorophenyl)-N-[(2S)-1-hydroxypropan-2-yl]-3-oxo-2-phenyl-2,3-dihydropyridazine-4-carboxamide] | > 2e-05 | – | 2.14e-07 | – |
| O=C(NC(CO)C1CCOCC1)c1cc(-c2ccc(Cl)cc2)nn(-c2cccc(F)c2)c1=O (single isomer, unassigned) [Example 151, 6-(4-Chlorophenyl)-2-(3-fluorophenyl)-N-[2-hydroxy-1-(tetrahydro-2H-pyran-4-yl)ethyl]-3-oxo-2,3-dihydropyridazine-4-carboxamide] | – | – | 1.24e-07 | > 2e-05 |
| Cc1ccc(-c2cc(C(=O)NC(CO)C(C)C)c(=O)n(-c3ccccc3)n2)cc1 (stereo not drawn) [Example 70, N-(1-hydroxy-3-methylbutan-2-yl)-6-(4-methylphenyl)-3-oxo-2-phenyl-2,3-dihydropyridazine-4-carboxamide] | – | 1.26e-07 | 9.22e-08 | – |
